{"source": "patent US10100284B2", "about": "“Method for inducing differentiation of pluripotent stem cells into endodermal cells” (TOAGOSEI CO., LTD., priority 2013, dated 2018)", "tested_on": "iPS cells (clone name: 201B2 or 201B7)", "experiment": "AFP dot blotting of iPS cell culture supernatant", "format": "cell-based, human", "conditions": "peptide concentration 6.0 μM; 8th to 20th day of culture in the presence of the peptide; FIG. 5", "method": "The stem cell differentiation-inducing activities of the differentiation-inducing synthetic peptides (Samples 2-7) obtained in Example 1 above were evaluated by measuring changes over time in AFP expression levels (typically, extracellular excretion levels). AFP is a differentiation marker protein that is known to be in expressed in cells that have differentiated into liver precursor cells in particular of the endodermal cells. iPS cells that had been cultured and passaged in vitro were used as the test cells. The details of the evaluation test are as follows.\nAs in Example 3, the peptides of Samples 2 through 7 were added to a peptide concentration of 6.0 μM to added to medium containing cultured iPS cells (clone name: 201B2 or 201B7), and the cells were cultured (Sample Groups 2 through 7). A peptide free-group (comparative example) using cells cultured under the same conditions as in Sample groups 2 through 7 without the addition of a peptide was also established as a control group. […]\nAfter completion of the antigen-antibody reaction with the secondary antibody, Lumina Crescendo Western HRP Substrate (Merck Millipore Corp.) was dripped on the nitrocellulose membrane to react the substrate with the HRP-labeled antibody (secondary antibody), and the target protein (AFP) was detected with a LAS-3000 luminescent image analyzer (Fuji Film).", "note": "Where no end group is shown, it is not given here.", "data": [{"substance": "RLLLLLLVGLTAPALAKKRTLRKNDRKKR-COOH (RLLLLLLVGLTAPALAKKRTLRKNDRKKR-OH) [Sample 4]", "values": [{"measurement": "amount of AFP in the culture supernatant in comparison with peptide-free group with the same culture time", "value": "particularly dramatic"}]}]}
